Data on two compounds can be found in patent US7893037B2, “Pharmaceutical composition and process” (Roche Palo Alto LLC, priority 2007, dated 2011).

Structures are written as SMILES.

One data set deals with hepatitis C virus (HCV). The conditions noted are these: patients infected with hepatitis C virus.
The nature of data set [1]: bioavailability / absorption of nucleoside and prodrug. The format is in vivo.

For `CC(C)C(=O)OC[C@@]1(N=[N+]=[N-])O[C@@H](n2ccc(N)nc2=O)[C@H](OC(=O)C(C)C)[C@@H]1OC(=O)C(C)C.Cl` [I, isobutyric acid (2R,3S,4R,5R)-5-(4-amino-2-oxo-2H-pyrimidin-1-yl)-2-azido-3,4-bis-iso-butyryloxy-tetrahydro-furan-2-ylmethyl ester; hydrochloride salt], the viral load result in the data set on hepatitis C virus (HCV) is given as “decrease the viral load”. Moreover, the absorption entry in data set [1] (in vivo) is listed as “efficiently absorbed”. Further, in data set [1] (plasma), the “reversion of prodrug in plasma” value is “revert to I in plasma”.
For the compound `[N-]=[N+]=NC1(CO)OC(n2ccc(N)nc2=O)C(O)C1O` (stereo not shown) [II, 4-Amino-1-(5-azido-3,4-dihydroxy-5-hydroxymethyl-tetrahydro-furan-2-yl)-1H-pyrimidin-2-one, reference compound], the bioavailability result in data set [1] (in vivo) was “insufficient bioavailabilty”.
